{"source": "patent US9364462B2", "about": "“Alpha-1-adrenergic receptor agonist therapy” (The Regents of the University of California, priority 2012, dated 2016)", "key": {"[1]": {"experiment": "Doxorubicin cardiomyopathy model in adult mice", "type": "in vivo, mouse", "experimental": "FIG. 6. A61603 prevents doxorubicin cardiomyopathy. DOX was given to adult mice in a single intraperitoneal dose of 25 mg/kg. A61603 was infused subcutaneously (osmotic minipump) for 1 week (top left). We monitored mouse survival over the week, and at the end of 1 week measured heart cell damage and function.\nIn summary, the alpha-1A agonist A61603 is protective and adaptive in cardiac muscle cells in vitro and in vivo. […] A61603 protects against mortality and cardiomyopathy, by preventing cell death and fibrosis. We chose a model of cardiomyopathy caused by a cancer drug, the anthracycline doxorubicin (DOX). Cancer drug cardiotoxicity is a common and growing problem. We used the same protocol that tested A61603 BP and signaling effects (FIG. 5)."}, "[2]": {"experiment": "Traumatic brain injury (TBI) by cortical impact, MRI", "type": "in vivo, mouse", "conditions": "4 weeks treatment, vs vehicle", "source_text": "FIG. 16. The alpha-1A agonist A61603 reduces the amount of brain damage after TBI, quantified by MRI. Mice had TBI by cortical impact, followed by 4 weeks treatment with A61603 or vehicle. MRI was done to identify viable brain (dark) and fluid-filled areas of lost brain tissue (bright) (left). The volume of dead brain was 50% less with A61603 (red, right).\nTo test this, we used a mouse model of traumatic brain injury (TBI), produced by a piston impact on the cerebral cortex, done through a hole in the skull. TBI is a clinical problem of great and growing importance.\nWe tested the model in the alpha-1A knockout (KO) mouse. TBI in the alpha-1A KO caused the worst damage, compared with normal mice and mice with the alpha-1B KO (FIG. 15). We tested A61603 in normal wild type mice, using the same low BP-neutral dose employed in the cardiac studies, 10 ng/kg/d. The protocol was a prevention trial, and the end-point was magnetic resonance imaging (MRI), which can quantify the amount of dead and viable brain tissue in the living subject (e.g. mouse, human) non-invasively. A61603 reduced the amount of dead brain tissue after TBI (FIG. 16)."}, "[3]": {"system": "adult mouse cardiac muscle cells", "experiment": "Protection of adult mouse cardiac muscle cells against doxorubicin (DOX)", "type": "cell-based", "source_text": "(§1) FIG. 3. A61603 protects adult cardiac muscle cells. In adult mouse cardiac muscle cells, A61603 at a low concentration activates ERK (left), and protects against a cardiotoxic cancer drug, (DOX) (right). These effects are not blocked by a beta-blocker, propranolol (Prop), which is current standard of care in heart failure therapy. That is, A61603 effects are additive to those of a beta-blocker. Knockout of the alpha-1A receptor (AKO) eliminates myocyte protection by A61603 (right), showing that the drug does indeed work through the alpha-1A, as expected."}, "[4]": {"system": "neonatal rat cardiac muscle cells", "experiment": "Protein synthesis in neonatal rat cardiac muscle cells in vitro", "type": "cell-based", "conditions": "FIG. 2 (neonatal rat) and FIG. 20", "source_text": "FIG. 2. A61603 is adaptive in neonatal cardiac muscle cells.\nFIG. 20. A61603 is adaptive in cardiac muscle cells."}, "[5]": {"system": "neurons in brain slices", "experiment": "Adult mouse brain slices injured with H2O2 ex vivo", "type": "cell-based", "conditions": "H2O2, 2 h", "experimental": "FIG. 13. Brain slice model to study alpha-1A agonist in vitro. Thin brain slices were injured with hydrogen peroxide (H2O2), which simulates most forms of ischemic and traumatic injury at the cell level, in the presence or absence of A61603. After 2 hr, dead neurons (PI) and living neurons (ATP) were measured.\nFIG. 14. A61603 protects neurons in brain slices from oxidative injury in vitro. Slices were treated with H2O2 or vehicle (Veh) for 2 hr, in the presence of A61603, or absence (Veh).\nStudies were conducted in mice looking at alpha-1 agonist therapy, using A61603, in a model of traumatic brain injury. Alpha-1-ARs are 10 times more abundant in neurons than in cardiac myocytes, and the alpha-1A subtype is the most abundant. […]\nAlpha-1A-adrenergic receptors (α1A-ARs) have a protective trophic role in the heart. α1A-AR levels are high in the brain, and neuroprotection by norepinephrine is known. […] Ex vivo, we quantified ATP levels (marker for survival) in mouse brain slices injured by 10μ, M H2O2 and treated for 2 h with A61603 (a1A-AR specific agonist) or Vehicle. We quantified the number of dead neurons (propidium iodide (PI) positive) out of total (NeuN positive) in the same treated slices by immunohistochemistry (IHC). In vivo, we measured brain infarct size (BrdU-positive glial cells) after transient focal ischemia and reperfusion (IR) in α1ABKO and WT mice. […]"}, "[6]": {"experiment": "Blood pressure after acute intraperitoneal injection, indwelling arterial catheter", "type": "in vivo, mouse", "conditions": "10 ng/kg injected acutely intraperitoneal", "experimental": "The classic effect of alpha-1-agonists is to increase BP by stimulating smooth muscle cells to contract. It could be a disadvantage in heart failure (HF) therapy to increase BP excessively. On the other hand, all current recommended drugs in HF reduce BP, and a drug that increased BP slightly might have a strong therapeutic advantage. […] The foregoing experiments provided the rationale to test treatment with A61603 at 10 ng/kg/d in a mouse model of cardiomyopathy and HF."}, "[7]": {"system": "ERK", "experiment": "ERK activation in adult mouse cardiac muscle cells", "type": "cell-based", "conditions": "low concentration, FIG. 3 left", "source_text": "as §1"}}}
{"smiles": "CS(=O)(=O)Nc1c(O)ccc2c1CCCC2C1=NCCN1", "note": "(centres unmarked) [A61603, N-[1-(4,5-dihydro-1H-imidazol-2-yl)-6-hydroxy-tetralin-5-yl]methanesulfonamide]", "values": [{"measurement": "survival after DOX", "setting": "[1]; DOX 25 mg/kg ip single dose, A61603 sc infusion 1 week, vs vehicle", "result": "markedly improved"}, {"measurement": "cell death by apoptosis (caspase 3/7 activity and TUNEL staining)", "setting": "[1]; after DOX, end of 1 week", "result": "improved"}, {"measurement": "cell death by necrosis (serum CK, creatine kinase)", "setting": "[1]; after DOX, end of 1 week", "result": "improved"}, {"measurement": "indices of myocardial fibrosis", "setting": "[1]; after DOX, end of 1 week", "result": "improved"}, {"measurement": "protective effect on survival in alpha-1A knockout (KO)", "setting": "[1]; alpha-1A KO mice after DOX", "result": "lost"}, {"measurement": "heart function by echocardiography (fractional shortening)", "setting": "[1]; surviving mice, end of 1 week", "result": "improved"}, {"measurement": "volume of dead brain, less with A61603", "setting": "[2]", "result": 50, "unit": "%"}, {"measurement": "protection against cardiotoxic cancer drug (DOX)", "setting": "[3]; FIG. 3 right", "result": "protects"}, {"measurement": "ERK activation and DOX protection in presence of beta-blocker propranolol", "setting": "[3]; with propranolol (Prop)", "result": "not blocked"}, {"measurement": "activation of protein synthesis", "setting": "[4]", "result": "high efficacy and potency"}, {"measurement": "ATP levels after H2O2", "setting": "[5]; N=2, vehicle 5.5±0.5", "result": "8±1", "unit": "nmol/mg protein"}, {"measurement": "number of dead neurons caused by H2O2 (PI positive out of total NeuN positive)", "setting": "[5]; N=2, vehicle 86±5.3", "result": "46±0.3"}, {"measurement": "BP", "setting": "[6]", "result": "does not increase BP"}, {"measurement": "ERK activation", "setting": "[7]", "result": "activates ERK"}]}
